Data as given in patent publication EP3227262B1, “SULFIDE ALKYL AND PYRIDYL REVERSE SULFONAMIDE COMPOUNDS FOR HBV TREATMENT” (Novira Therapeutics Inc., priority 2014, dated 2016).

What follows are compounds tested on HBV (assay: Inhibition of HBV replication dot-blot assay in HBV-producing hepatoma cell line). Conditions: Hepatitis B virus, 144 h; activity in Dot-Blot assay; HepG2-2.2.15 cells; reduction in HBV DNA levels, six days.
Assay type: cell-based
Protocol: Compounds active in the HBV assembly assay are tested for their activity and toxicity in cellular assay. In the first anti-viral assay, the ability of compounds to inhibit HBV replication in an HBV-producing hepatoma cell line using the dot-blot method is evaluated.
(§1) Briefly, confluent monolayers of HepG2-2.2.15 cells are incubated with complete medium containing various concentrations of a test compound. Three days later, the culture medium is replaced with fresh medium containing the appropriately diluted test compound. Six days following the initial administration of the test compound, the cell culture supernatant is collected, and cell lysis is performed. The samples are applied onto Nylos membranes and DNA is immobilized to the membrane by UV cross-linking. After pre-hybridization, the HBV probe is added and the hybridization is performed overnight. The membranes are exposed to the KODAK films; antiviral activity is calculated from the reduction in HBV DNA levels (EC50). The EC50 for antiviral activity is calculated from the dose response curves of active compounds. Assay performance over time is monitored by the use of the standard positive control compounds ETV, BAY 41-4109, and HAP-1.
Selected compounds are tested for their activity and toxicity in cellular assay. In the first anti-viral assay, the ability of compounds to inhibit HBV replication in an HBV-producing hepatoma cell line using the dot-blot method is evaluated.
as §1, with “Confluent monolayers” for “Briefly, confluent monolayers”, “lysis was” for “lysis is”

Structure (SMILES) | EC50
CC1OCCC1S(=O)(=O)Nc1cccc(C(=O)Nc2ccc(F)c(Cl)c2)c1 (racemic) [Compound 205, (±)-N-(3-chloro-4-fluorophenyl)-3-(2-methyltetrahydrofuran-3-sulfonamido)benzamide] | < 10 µM
O=C(Nc1ccc(F)c(Cl)c1)c1ccc(F)c(SCC2CCOCC2)c1 [Compound 47, N-(3-Chloro-4-fluorophenyl)-4-fluoro-3-(((tetrahydro-2H-pyran-4-yl)methyl)thio)benzamide] | < 10 µM
O=C(Nc1ccc(F)c(Cl)c1)c1cc(NS(=O)(=O)C2CC2)ncc1Cl [Compound 149, 5-Chloro-N-(3-chloro-4-fluorophenyl)-2-(cyclopropanesulfonamido)isonicotinamide] | < 10 µM
O=C1CCCCC(Sc2cc(C(=O)Nc3ccc(F)c(Cl)c3)ccc2F)C1 (racemic) [Compound 13, (±)-N-(3-Chloro-4-fluorophenyl)-4-fluoro-3-((3-oxocycloheptyl)thio)benzamide] | < 10 µM
CC(C)(C)S(=O)(=O)Nc1cc(C(=O)Nc2ccc(F)c(Cl)c2)ccn1 [Compound 154, N-(3-Chloro-4-fluorophenyl)-2-(1,1-dimethylethylsulfonamido)isonicotinamide] | < 10 µM
O=C(Nc1ccc(F)c(F)c1)c1ccnc(NS(=O)(=O)C2CC2)c1 [Compound 128, 2-(Cyclopropanesulfonamido)-N-(3,4-difluorophenyl)isonicotinamide] | < 10 µM
O=C(Nc1ccc(F)c(F)c1)c1ccc(F)c(SC2CC(C(=O)O)C2)c1 (mixture of isomers) [Compound 59, (cis/trans)-3-((5-((3,4-Difluorophenyl)carbamoyl)-2-fluorophenyl)thio)cyclobutanecarboxylic acid] | < 10 µM
O=C(Nc1ccc(F)c(Cl)c1)c1ccnc(NS(=O)(=O)C2CCCOC2)c1 (racemic) [Compound 179, (±)-N-(3-Chloro-4-fluorophenyl)-2-(tetrahydro-2H-pyran-3-sulfonamido)isonicotinamide] | < 10 µM
O=C(Nc1cc(F)c(F)c(F)c1)c1ccc(F)c(SC2CCCCC(F)C2)c1 (racemic) [Compound 15, (±)-4-Fluoro-3-((3-fluorocycloheptyl)thio)-N-(3,4,5-trifluorophenyl)benzamide] | < 10 µM
O=C(Nc1cc(F)c(F)c(F)c1)c1ccc(F)c(SCCCO)c1 [Compound 17, 4-Fluoro-3-((3-hydroxypropyl)thio)-N-(3,4,5-trifluorophenyl)benzamide] | < 10 µM
COc1ccc(C(=O)Nc2ccc(F)c(Cl)c2)cc1SC1CCCCC1 [Compound 69, N-(3-Chloro-4-fluorophenyl)-3-(cyclohexylthio)-4-methoxybenzamide] | < 10 µM
CC(C)(Sc1cc(C(=O)Nc2ccc(F)c(Cl)c2)ccc1F)C(=O)O [Compound 51, 2-((5-((3-Chloro-4-fluorophenyl)carbamoyl)-2-fluorophenyl)thio)-2-methylpropanoic acid] | < 10 µM
O=C(Nc1cc(F)c(F)c(F)c1)c1ccc(F)c(S[C@@H]2CCCC[C@@H](O)C2)c1 (racemic) [Compound 14B, (±)-4-Fluoro-3-(((1R,3R)-3-hydroxycycloheptyl)thio)-N-(3,4,5-trifluorophenyl)benzamide] | < 10 µM
O=C(Nc1ccc(F)c(Cl)c1)c1cc(F)nc(NS(=O)(=O)C2CC2)c1 [Compound 137, N-(3-Chloro-4-fluorophenyl)-2-(cyclopropanesulfonamido)-6-fluoroisonicotinamide] | < 10 µM
O=C(Nc1ccc(F)c(Cl)c1)c1ccc(F)c(SCC2CCC(C(=O)O)CC2)c1 (mixture of isomers) [Compound 109, (cis/trans)-4-(((5-((3-Chloro-4-fluorophenyl)carbamoyl)-2-fluorophenyl)thio)methyl)cyclohexanecarboxylic acid] | < 10 µM
CCS(=O)(=O)Nc1cc(C(=O)Nc2ccc(F)c(Cl)c2)ccn1 [Compound 131] | < 10 µM
N#Cc1ccc(C(=O)Nc2ccc(F)c(F)c2)cc1SC1CCC(O)CC1 (mixture of isomers) [Compound 93, (cis/trans)-4-Cyano-N-(3,4-difluorophenyl)-3-((4-hydroxycyclohexyl)thio)benzamide] | < 10 µM
CCCS(=O)(=O)Nc1cc(C(=O)Nc2ccc(F)c(Cl)c2)ccn1 [Compound 133, N-(3-Chloro-4-fluorophenyl)-2-(propylsulfonamido)isonicotinamide] | < 10 µM
O=C(Nc1ccc(F)c(Cl)c1)c1ccnc(NS(=O)(=O)c2cccs2)c1 [Compound 141, N-(3-Chloro-4-nuorophenyl)-2-(thiophene-2-sulfonamido)isonicotinamide] | < 10 µM
O=C(Nc1cc(F)c(F)c(F)c1)c1ccc(F)c(SC2CCC(C(=O)N3CCNCC3)CC2)c1 (mixture of isomers) [Compound 108, (cis/trans)-4-Fluoro-3-((4-(piperazine-1-carbonyl)cyclohexyl)thio)-N-(3,4,5-trifluorophenyl)benzamide] | < 10 µM
O=C(Nc1ccc(F)c(Cl)c1)c1ccc(F)c(SCC2COC2)c1 [Compound 60, N-(3-Chloro-4-fluorophenyl)-4-fluoro-3-((oxetan-3-ylmethyl)thio)benzamide] | < 10 µM
COc1ccc(C(=O)Nc2ccc(F)c(Cl)c2)cc1SC1CCC(O)CC1 (mixture of isomers) [Compound 70, (cis/trans)-N-(3-Chloro-4-fluorophenyl)-3-((4-hydroxycyclohexyl)thio)-4-methoxybenzamide] | < 10 µM
O=C(Nc1cc(F)c(F)c(F)c1)c1ccnc(NS(=O)(=O)C2CC2)c1 [Compound 127, 2-(Cyclopropanesulfonamido)-N-(3,4,5-trifluorophenyl)isonicotinamide] | < 10 µM
O=C(Nc1ccc(F)c(Cl)c1)c1ccc(F)c(SCCO)c1 [Compound 26, N-(3-Chloro-4-fluorophenyl)-4-fluoro-3-((2-hydroxyethyl)thio)benzamide] | < 10 µM
O=C(Nc1ccc(F)c(Cl)c1)c1cccc(NS(=O)(=O)N2CCC(OCc3ccccc3)CC2)c1 [Compound 207, 3-(4-(benzyloxy)piperidine-1-sulfonamido)-N-(3-chloro-4-fluorophenyl)benzamide] | < 10 µM
O=C(Nc1ccc(F)c(Cl)c1)c1ccc(Cl)c(SC2CCC(O)CC2)c1 (mixture of isomers) [Compound 75, (cis/trans)-4-Chloro-N-(3-chloro-4-fluorophenyl)-3-((4-hydroxycyclohexyl)thio)benzamide] | < 10 µM
O=C(Nc1ccc(F)c(Cl)c1)c1cccc(NS(=O)(=O)c2cccs2)c1 [Compound 199, N-(3-chloro-4-fluorophenyl)-3-(thiophene-2-sulfonamido)benzamide] | < 10 µM
O=C(O)CC1CCC(Sc2cc(C(=O)Nc3cc(F)c(F)c(F)c3)ccc2F)CC1 (mixture of isomers) [Compound 107, (cis/trans)-2-(4-((5-((3,4,5-trifluorophenyl)carbamoyl)-2-fluorophenyl)thio)cyclohexyl)acetic acid] | < 10 µM
O=C(Nc1ccc(F)c(Cl)c1)c1ccnc(NS(=O)(=O)CC2(O)CCC2)c1 [Compound 155, N-(3-Chloro-4-fluorophenyl)-2-((1-hydroxycyclobutyl)methylsulfonamido) isonicotinamide] | < 10 µM
O=C(Nc1ccc(F)c(Cl)c1)c1ccnc(NS(=O)(=O)Cc2ccccc2)c1 [Compound 139, N-(3-Chloro-4-fluorophenyl)-2-(phenylmethylsulfonamido)isonicotinamide] | < 10 µM
